This passage reports IC50 results from patent US9266908B2, “Inhibitors of arginase and their therapeutic applications” (MARS, INCORPORATED, priority 2011, dated 2016).

Experiment [1] addresses T1, arginase II (ARG II) (Homo sapiens, UniProt P78540).
T1 sequence (P78540 23-354): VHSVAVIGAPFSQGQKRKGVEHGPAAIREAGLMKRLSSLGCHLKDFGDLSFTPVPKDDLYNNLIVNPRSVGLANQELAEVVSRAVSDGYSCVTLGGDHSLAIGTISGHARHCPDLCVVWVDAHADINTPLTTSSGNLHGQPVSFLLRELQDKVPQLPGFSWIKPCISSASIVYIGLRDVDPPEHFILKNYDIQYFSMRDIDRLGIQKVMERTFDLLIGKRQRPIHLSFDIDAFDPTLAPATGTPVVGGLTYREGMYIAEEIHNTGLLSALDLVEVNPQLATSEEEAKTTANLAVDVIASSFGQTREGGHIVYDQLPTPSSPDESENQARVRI
Kind of experiment: Inhibition of arginase II, spectrophotometric urea assay at 530 nm.
Description: Inhibition of arginase I (ARG I) and arginase II (ARG II) by the inventive compounds is followed spectrophotometrically at 530 nm. […] Solutions of arginase I and II are prepared in 100 mM sodium phosphate buffer, pH 7.4 containing 1 mg/ml of OVA to give an arginase stock solution at a final concentration of 100 ng/ml.
To each well of a 96-well microtiter plate is add 40 μl of enzyme, 10 μl of an inventive compound and 10 μl of enzyme substrate (L-arginine+ manganese sulfate). For wells that are used as positive controls, only the enzyme and its substrate are added, while wells used as negative controls contain only manganese sulfate.
After incubating the microtiter plate at 37° C. for 60 minutes, 150 μl of a urea reagent obtained by combining equal proportions (1:1) of reagents A and B is added to each well of the microtiter plate to stop the reaction. The urea reagent is made just before use by combining Reagent A (10 mM o-phthaldialdehyde, and 0.4% polyoxyethylene (23) lauryl ether (w/v) in 1.8 M sulfuric acid) with Reagent B (1.3 mM primaquine diphosphate, 0.4% polyoxyethylene (23) lauryl ether (w/v), 130 mM boric acid in 3.6 M sulfuric acid). After quenching the reaction mixture, the microtiter plate is allowed to stand for an additional 10 minutes at room temperature to allow color development. […] The normalized OD is then used to generate a dose-response curve by plotting the normalized OD values against log [concentration] and using regression analysis to compute the IC50 values.

Experiment [2] concerns the target T2, human arginase I (ARG I) (Homo sapiens, UniProt P05089).
T2 sequence (P05089 1-322): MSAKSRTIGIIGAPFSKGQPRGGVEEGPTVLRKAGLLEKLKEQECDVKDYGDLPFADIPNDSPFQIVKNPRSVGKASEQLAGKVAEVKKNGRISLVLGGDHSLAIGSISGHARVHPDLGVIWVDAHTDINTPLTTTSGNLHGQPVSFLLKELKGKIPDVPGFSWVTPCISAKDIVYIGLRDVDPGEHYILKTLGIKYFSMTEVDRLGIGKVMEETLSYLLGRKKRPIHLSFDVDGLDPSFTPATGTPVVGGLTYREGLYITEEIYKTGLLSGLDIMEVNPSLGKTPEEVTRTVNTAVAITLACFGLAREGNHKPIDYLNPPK
The experiment can be described thus: Inhibition of arginase I, spectrophotometric urea assay at 530 nm.

For `NC(CCCCB(O)O)(C(=O)O)[C@H]1C[C@@H](NCC2CCN(c3ccc(C(=O)O)cc3)CC2)C1` (mixture of isomers) [Example 59, 4-(4-(((1R,3s)-3-((S)-1-amino-5-borono-1-carboxypentyl)cyclobutylamino)methyl)piperidin-1-yl)benzoic acid], the IC50 in experiment [1] and in experiment [2] was 26 to 100 nM in each case.
With `NC(CCCCB(O)O)(C(=O)O)[C@H]1C[C@H](N(Cc2ccccc2)Cc2ccccc2)C1` (relative stereo) [Example 28, (S)-2-amino-6-borono-2-((1r,3S)-3-(dibenzylamino)cyclobutyl)hexanoic acid], the IC50 in experiment [1] and in experiment [2] was > 1500 nM each time.
In experiment [1], `NC(CCCCB(O)O)(C(=O)O)[C@H]1C[C@@H](NCCCc2ccccc2)C1` (stereo partly drawn) [Example 1, (S)-2-amino-6-borono-2-((1s,3R)-3-(3-phenylpropylamino)cyclobutyl) hexanoic acid] showed an IC50 of 26 to 100 nM.
Take `NC(CCCCB(O)O)(C(=O)O)[C@H]1C[C@@H](NCCCc2cc(F)cc(Cl)c2)C1` (stereo partly drawn) [Example 2, (S)-2-amino-6-borono-2-((1s,3R)-3-(3-(3-chloro-5-fluorophenyl)propylamino)cyclobutyl)hexanoic acid]: the IC50 is 0.1 to 25 nM in experiment [1] and 26 to 100 nM in experiment [2].
For `NC(CCCCB(O)O)(C(=O)O)[C@H]1C[C@@H](NCCc2ccc(F)c(F)c2)C1` (stereo partly drawn) [Example 3, (S)-2-amino-6-borono-2-((1s,3R)-3-(3,4-difluorophenethylamino)cyclobutyl)hexanoic acid], in that order: 26 to 100 nM and 26 to 100 nM.
Taken in the same sequence, the figures for `NC(CCCCB(O)O)(C(=O)O)[C@H]1C[C@@H](NCCc2ccc(Cl)cc2Cl)C1` (stereo partly drawn) [Example 4, (S)-2-amino-6-borono-2-((1s,3R)-3-(2,4-dichlorophenethylamino)cyclobutyl)hexanoic acid] were 26 to 100 nM and 26 to 100 nM.
As for `NC(CCCCB(O)O)(C(=O)O)[C@H]1C[C@@H](NCc2cccc(-c3ccccc3)c2)C1` (stereo partly drawn) [Example 7, (S)-2-amino-2-((1s,3R)-3-(biphenyl-3-ylmethylamino)cyclobutyl)-6-boronohexanoic acid], the IC50 in experiment [1] and in experiment [2] was 26 to 100 nM throughout.
On to `NC(CCCCB(O)O)(C(=O)O)[C@H]1C[C@@H](NC[C@@H]2Cc3ccccc3CN2)C1` (stereo partly drawn) [Example 14, (S)-2-amino-6-borono-2-((1R,3R)-3-(((S)-1,2,3,4-tetrahydroisoquinolin-3-yl)methylamino)cyclobutyl)hexanoic acid], for which the IC50 in experiment [1] and in experiment [2] was 26 to 100 nM each time.
Regarding `NC(CCCCB(O)O)(C(=O)O)[C@H]1C[C@@H](NCc2ccc(O)cc2)C1` (stereo partly drawn) [Example 20, (S)-2-amino-6-borono-2-((1s,3R)-3-(4-hydroxybenzylamino)cyclobutyl)hexanoic acid], the IC50 in experiment [1] and in experiment [2] was 26 to 100 nM in each case.
Turning to `NC(CCCCB(O)O)(C(=O)O)[C@H]1C[C@@H](N2Cc3ccccc3C2)C1` (stereo partly drawn) [Example 29, 2-amino-6-borono-2-((1s,3R)-3-(isoindolin-2-yl)cyclobutyl)hexanoic acid], the IC50 in experiment [1] and in experiment [2] was 101 to 500 nM throughout.
As for `CNC(CCCCB(O)O)(CCN1CCc2c(Cl)cccc2C1)C(=O)O` (stereo not shown) [Example 31, 6-borono-2-(2-(5-chloro-3,4-dihydroisoquinolin-2(1H)-yl)ethyl)-2-(methylamino)hexanoic acid], the IC50 in experiment [1] and in experiment [2] was 101 to 500 nM throughout.
Regarding `CNC(CCCCB(O)O)(CCN1CCc2ccccc2C1)C(=O)O` (stereo not shown) [Example 32, 6-borono-2-(2-(3,4-dihydroisoquinolin-2(1H)-yl)ethyl)-2-(methylamino)hexanoic acid], the IC50 in experiment [1] and in experiment [2] was 101 to 500 nM in each case.
Take `CNC(CCCCB(O)O)(CCN1CCC(C)(C)CC1)C(=O)O` (stereo not shown) [Example 34, 6-borono-2-(2-(4,4-dimethylpiperidin-1-yl)ethyl)-2-(methylamino)hexanoic acid]: the IC50 in experiment [1] and in experiment [2] was 101 to 500 nM throughout.
On to `CNC(CCCCB(O)O)(CCN1CCC(c2ccc(Cl)cc2)CC1)C(=O)O` (stereo not shown) [Example 37, 6-borono-2-(2-(4-(4-chlorophenyl)piperidin-1-yl)ethyl)-2-(methylamino)hexanoic acid], for which the IC50 in experiment [1] and in experiment [2] was 101 to 500 nM throughout.
Regarding `NC(CCCCB(O)O)(CCCN1CCCC1)C(=O)O` (stereo not shown) [Example 38, 2-amino-6-borono-2-(3-(pyrrolidin-1-yl)propyl)hexanoic acid], the IC50 in experiment [1] and in experiment [2] was 101 to 500 nM throughout.
`NC(CCCCB(O)O)(C(=O)O)[C@@H]1CC[C@H](NCc2ccc(-c3ccccc3)cc2)C1` (stereo partly shown) [Example 42]: the IC50 in experiment [1] and in experiment [2] was 26 to 100 nM in each case.
On to `NC(CCCCB(O)O)(C(=O)O)[C@H]1C[C@@H](NCCc2ccc(-c3ccccc3)cc2)C1` (stereo partly drawn) [Example 65, (S)-2-amino-2-((1s,3R)-3-(2-(biphenyl-4-yl)ethylamino)cyclobutyl)-6-boronohexanoic acid], for which the IC50 in experiment [1] lay within 0.1 to 25 nM; in experiment [2], 26 to 100 nM.
In the case of `N[C@](CCCCB(O)O)(CCNC1Cc2ccccc2C1)C(=O)O` [Example 66, (R)-2-amino-6-borono-2-(2-(2,3-dihydro-1H-inden-2-ylamino)ethyl)hexanoic acid], the IC50 in experiment [1] and in experiment [2] was 101 to 500 nM in each case.
Regarding `CCCN(C)CC[C@](N)(CCCCB(O)O)C(=O)O` [Example 69, (R)-2-amino-6-borono-2-(2-(methyl(propyl)amino)ethyl)hexanoic acid], the IC50 in experiment [1] and in experiment [2] was 101 to 500 nM in each case.
For the compound `CC(C)NCC[C@](N)(CCCCB(O)O)C(=O)O` [Example 70, (R)-2-amino-6-borono-2-(2-(isopropylamino)ethyl)hexanoic acid], the IC50 in experiment [1] was in the range of 101 to 500 nM; in experiment [2] it was 26 to 100 nM.
Taken in the same sequence, the figures for `CC(C)CNCC[C@](N)(CCCCB(O)O)C(=O)O` [Example 71, (R)-2-amino-6-borono-2-(2-(isobutylamino)ethyl)hexanoic acid] were 101 to 500 nM and 101 to 500 nM.
Regarding `N[C@](CCCCB(O)O)(CCN1Cc2ccccc2C1)C(=O)O` [Example 72, (R)-2-amino-6-borono-2-(2-(isoindolin-2-yl)ethyl)hexanoic acid], the IC50 in experiment [1] fell in the range of 501 to 1500 nM; in experiment [2] it was 101 to 500 nM.
Taken in the same sequence, the figures for `NC1(c2ccc(Cl)cc2)CC(C(N)(CCCCB(O)O)C(=O)O)C1` (stereo not shown) [Example 73, 2-amino-2-(3-amino-3-(4-chlorophenyl)cyclobutyl)-6-boronohexanoic acid] were 101 to 500 nM and 501 to 1500 nM.
On to `NC1(Cc2ccc(Cl)cc2)CC(C(N)(CCCCB(O)O)C(=O)O)C1` (stereo not shown) [Example 74, 2-amino-2-(3-amino-3-(4-chlorobenzyl)cyclobutyl)-6-boronohexanoic acid], for which the IC50 in experiment [1] and in experiment [2] was 101 to 500 nM each time.
Regarding `CNC(CCCCB(O)O)(C(=O)O)[C@H]1C[C@@H](N)C1` (stereo partly drawn) [Example 75, (S)-2-((1s,3R)-3-aminocyclobutyl)-6-borono-2-(methylamino)hexanoic acid], the IC50 in experiment [1] and in experiment [2] was 101 to 500 nM throughout.
